In patent US20230094545A1, “S1P RECEPTOR MODULATORS” (AKAAL PHARMA PTY LTD, priority 2020, published 2023):
Where two headings read alike, the source gives them in different places.

Legend:
[1] = Systemic exposure and lymphopenia in mice; format: in vivo
[2] = system: middle cerebral artery occlusion (MCAO); experiment: Middle cerebral artery occlusion (MCAO) model of stroke; format: in vivo; conditions: oral 1, 3 and 5 mg/kg; ischemia 60 min, reperfusion 72 h
Protocol: The compound of Formula I was assessed in an animal model of stroke, namely the middle cerebral artery occlusion (MCAO) model. The effect of a compound of Formula I on infarctions (TTC staining) and BBB leakage (Evan's blue extravasation) ischemia for 60 min and reperfusion for 72 h was assessed.

[3] = system: atopic dermatitis; experiment: Topical treatment of atopic dermatitis patients; format: in vivo, human
Protocol: (§1) Atopic dermatitis patients were treated with the compound of Formula I@60 mg daily dosing as topical treatment for 28 consecutive days.

[4] = Topical treatment of atopic dermatitis patients; format: in vivo, human; conditions: human, in vivo; by week 3, 60 mg daily topical; read-out: systemic exposure
Protocol: as §1

[5] = system: burn wound and scratch wounds; experiment: Topical formulation in wound patients (case reports); format: in vivo, human
Protocol: A patient presented with a second degree burn wound on the inner surface of their middle finger of their left hand, suffering from swelling, blistering and pain at the site of injury. A topical gel formulation of compound of formula (I) was applied topically to the site of injury.
A patient presented with a scratch wounds on hands while cleaning gutters. These become inflamed and painful in 3 hours.

[6] = system: paclitaxel induced neuropathic pain; experiment: Paclitaxel induced neuropathic pain; format: in vivo, Sprague Dawley Rats
Protocol: Forty-eight male Sprague Dawley Rats were assigned to different treatment and control groups containing 8 animals per group. All animals, except the Naive control were injected with Paclitaxel (2 mg/kg) intraperitoneally on four alternate days (D0, D2, D4 and D6). For prophylactic intervention, the compound of Formula I was dosed orally at dose of 0.3, 1 and 3 mg/kg/day when the treatment was initiated along with paclitaxel treatment and the dosage was continued until day 15 post first paclitaxel injection. For therapeutic intervention, the compound of Formula I was dosed orally at dose of 3 mg/kg/day when the treatment was initiated after establishment of neuropathic pain i.e. on day 16 post first paclitaxel injection and was continued for the next 7 days.
For behavioural testing each rat was allowed to acclimatize individually to a transparent enclosure on elevated wire mesh for at least 15 min. Behavioural testing was performed using an Electronic von Frey Aesthesiometer (IITC Life Science) to evaluate paw withdrawal threshold to mechanical stimulus.
Based on these findings it can be concluded that treatment with the compound of formula (I) is effective both as a prophylactic and therapeutic and has an anti-allodynic effect in paclitaxel induced neuropathic pain.

[7] = system: RAW 264.7 cell line (monocyte cells); experiment: Heat-killed P. acne challenged RAW 264.7 cells, cytokines by ELISA; format: cell-based; conditions: Mus musculus, RAW264.7, compared to untreated
Protocol: RAW 264.7 cell line (monocyte cells) challenged with the heat-killed Propionibacterium acne (P. acne) and incubated for 1 hour and were divided into four groups as G1=not challenged with P. acne, G2=challenged with P. acne but untreated, G3=challenged with P. acne and treated with 1 μM of compound of formula I, G3=challenged with P. acne and treated with 3 μM of compound of formula I. The ELISA method was used to analyze the effect of compound of formula I on the secretion of proinflammatory cytokines the TNFα and IL6. Compound of formula I inhibits the cytokines in P. acne challenged monocyte cells. The results are shown in below FIG. 6. The compound of formula I inhibit the secretion of TNFα@1 μM=˜42% and @3 μM=˜69% and IL6@1 μM=˜27% and @3 μM=˜42% compared to untreated in P. acne challenged cell line.

[8] = system: LPS mediated systemic inflammation; experiment: LPS-induced sepsis model; format: in vivo, Sprague-Dawley rats; conditions: 3 mg/Kg oral 1 h after LPS and every 24 h
Protocol: Sepsis was induced in female Sprague-Dawley rats by LPS (5 mg/kg) administration and treated orally with compound of Formula I (3 mg/Kg) 1 h after and every 24 h thereafter to determine the effect of a compound of formula (I) in this animal model of sepsis (LPS mediated systemic inflammation). Animals were sacrificed at 24 and 72h post LPS treatment.

[9] = system: microglial (BV2 cells) and macrophages (Raw cells); experiment: LPS-treated microglial and macrophage cells, cytokines by ELISA; format: cell-based; conditions: 1-5 μg/mL, 4 hrs prior to LPS 500 ng/mL, p<0.05
Protocol: Treatment of a compound of formula (I) (1-5 μg/mL) to the cultured microglial (BV2 cells) and macrophages (Raw cells) was made 4 hrs prior to treatment with lipopolysaccharide (LPS) at 500 ng/mL. After 16-18 hr of drug treatment the cytokines (TNFα, IL1β and IL6) were measured in culture media by ELISA and expression levels of cyclooxygenase2 (Cox-2), inducible […] (iNOS) or beta actin were analysed in cell homogenates by western analysis.

[10] = Topical treatment of psoriasis patients; format: in vivo, human; conditions: human, in vivo, 30 mg daily; after topical applications, below the limit of quantification; read-out: systemic exposure
Protocol: (§2) Twelve psoriasis patients were treated with the compound of Formula I@30 mg daily dosing under occlusion as topical treatment for 28 consecutive days. […] The systemic exposure after topical applications was recorded below the limit of quantification (BLQ) <0.400 ng/mL.

[11] = system: psoriasis; experiment: Topical treatment of psoriasis patients; format: in vivo, human
Protocol: as §2

[12] = molecular target: S1P1 receptor (Homo sapiens, UniProt P21453); experiment: S1P1 receptor degradation (activity v/s degradation margin); format: cell-based
S1P1 receptor, sequence (P21453 whole entry): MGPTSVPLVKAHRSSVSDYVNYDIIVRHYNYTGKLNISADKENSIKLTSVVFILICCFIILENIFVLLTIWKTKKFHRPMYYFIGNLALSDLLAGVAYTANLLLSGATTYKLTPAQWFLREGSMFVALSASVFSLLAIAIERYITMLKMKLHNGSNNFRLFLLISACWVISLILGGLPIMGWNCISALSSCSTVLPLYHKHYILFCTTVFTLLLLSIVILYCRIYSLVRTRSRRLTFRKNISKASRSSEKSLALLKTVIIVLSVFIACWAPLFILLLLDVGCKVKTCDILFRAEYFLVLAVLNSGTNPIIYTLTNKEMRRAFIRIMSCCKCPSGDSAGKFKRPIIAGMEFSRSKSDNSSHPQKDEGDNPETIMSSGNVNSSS

[13] = read-out: inhibition of secretion of IL6
[14] = read-out: inhibition of secretion of TNFα

CCCOc1ccc(-c2nc(-c3ccc4oc(C(N)(CO)CO)cc4c3)no2)cc1Cl [compound of formula (I)]
measured lymphopenia ([1]; 0.3 mg/kg, 6 hours post dose): 40% | systemic exposure ([1]; dose of 0.3 mg/kg): 6.36 ng/mL | infarct volume, infarct area, sensory motor function, blood brain barrier leakage [2]: significantly reduced the infarct volume, infract area and sensory motor function and blood brain barrier leakage | EASI score and pruritus score ([3]; 60 mg daily topical, 28 days): reduction compared to baseline | absolute lymphocyte count ([3]; 60 mg daily topical, 28 days): no systemic change in the absolute lymphocyte count | tolerability ([3]; 60 mg daily topical, 28 days): well tolerated | lymphopenia ([3]; by week 3): no lymphopenia event | concentration at 3 week [4]: 1 to 2.5 ng/mL | adverse side effects ([5]; both cases): No adverse side effects | swelling and pain of scratch wounds ([5]; ointment formulation, one patient): swelling and pain reduced dramatically | swelling and blistering of burn wound ([5]; topical gel formulation, after 10 minutes, one patient): swelling and blistering had visibly reduced dramatically | pain of burn wound ([5]; topical gel formulation, one patient): significant pain relief | neuropathic pain, therapeutic treatment ([6]; 3 mg/kg/day oral after establishment of pain, maximum effect after 5th daily dose): reversal of neuropathic pain in time dependent manner | development of neuropathic pain, prophylactic treatment ([6]; 0.3, 1 and 3 mg/kg/day oral, maximum effect at 3 mg/kg/day): inhibited the development of paclitaxel induced neuropathic pain dose dependently | reduction of day 16 score ([6]; preventive model, 1 and 3 mg/kg dose levels, p<0.001): > 60% | anti-allodynic effect after withdrawal of treatment on day 15 ([6]; until 7 days post last drug treatment (day 22)): did not cause any reversal of the drug's anti-allodynic effect | inhibition at 1 µM [7, 13]: ~27% | inhibition at 1 µM [7, 14]: ~42% | inhibition at 3 µM [7, 13]: ~42% | inhibition at 3 µM [7, 14]: ~69% | body temperature and organ histopathology [8]: positive impact on the body temperature and organ histopathology | proinflammatory cytokines (TNFα, IL1β and IL6) [9]: significant reduction of proinflammatory cytokines | concentration at 28 days [10]: < 0.4 ng/mL | absolute lymphocyte count ([11]; 30 mg daily topical, 28 days): no systemic change in the absolute lymphocyte count | tolerability ([11]; 30 mg daily topical, 28 days): well tolerated | local psoriasis severity index (LPSI) score ([11]; day 28, from 5.8 (day 1), 30 mg daily topical under occlusion, p<0.0016): −2.1 | plaque area ([11]; some subjects, image analysis): reduction in plaque area | activity v/s degradation margin [12]: greater than 100
